Measured values reported in patent US6355671B1, “SULFONATED DERIVATIVES OF CYCLIC PHENOL SULFIDES, PROCESS FOR THE PREPARATION THEREOF, […] […] […] PHENOL SULFIDES, METHODS FOR […] RECOVERY […], AND DRUG COMPOSITIONS CONTAINING THE SULFIDES” (Cosmo Research Institute, priority 1997, dated 2002).

Columns and labels:
[1] = test system: HIV-1
Protocol: The cyclic phenol sulfide (III) was dissolved in the medium used in Example 8 to a concentration of 2.5 mM, and the solution was made into 2-fold serial dilutions to prepare cyclic phenol sulfide (III)-containing medium samples having 11 steps of concentration. Each of the cyclic phenol sulfide (III)-containing medium samples was dispensed into wells of a 6-well plate in 2.5 ml, a culture broth containing 1.64×10^5 cells/ml of MOLT-4 or 1.82×10^4 cells/ml of HIV-1-infected MOLT-4 was dispensed into the resulting wells in 2.5 ml, the cells were cultured at 37° C. for 3 days in a moist incubator containing 5% CO2, the resulting cell density was measured using Celltac MEK-5254 (manufactured by NIHON KOHDEN), and then a portion of the medium containing 10^6 cells was taken out to purify DNA. The number of HIV-1 DNA contained in 500 ng of the cell DNA was determined by competitive nested PCR.
Firstly, 500 ng of each cell DNA sample was mixed with 1 μM of the primers JA9 and JA12, 0.2 mM dNTP, 50 mM KCl, 10 mM Tris-HCl (pH 8.3), 4 mM MgCl2, 5,000 copies of the competitor and 2 units of Taq DNA polymerase manufactured by Roche), and the total volume was adjusted to 100 μl with Milli-Q water. […]

[2] = test system: MOLT-4 (T cell leukemia cell); details: MOLT-4 cell density after 3 days of culture, read from FIG. 2
Protocol: In order to evaluate cytotoxicity of the cyclic phenol sulfide (III) in a human cell line, MOLT-4 (T cell leukemia cell, Riken Gene Bank accession number RCB 0206), was used in the test. The cyclic phenol sulfide (III) was dissolved in a medium (RPMI-1640 containing 10% FCS (fetal calf serum), kanamycin (5,000 U/ml) and streptomycin (5 mg/ml)) to a concentration of 2.5 mM, and the solution was made into 2-fold serial dilutions to prepare cyclic phenol sulfide (III)-containing medium samples having 11 steps of concentration. Each of the cyclic phenol sulfide (III)-containing medium samples was dispensed into wells of a 6-well plate in 2.5 ml, a MOLT-4 culture broth of 2×10^5 cells/ml was dispensed into the resulting wells in 2.5 ml, the cells were cultured at 37° C. for 3 days in a moist incubator containing 5% CO2, and then the cell density was measured using Celltac MEK-5254 (manufactured by NIHON KOHDEN).

`O=S(=O)([O-])c1cc2c(O)c(c1)Sc1cc(S(=O)(=O)[O-])cc(c1O)Sc1cc(S(=O)(=O)[O-])cc(c1O)Sc1cc(S(=O)(=O)[O-])cc(c1O)S2.[Na+].[Na+].[Na+].[Na+]` [cyclic phenol sulfide (III), sodium salt of 25,26,27,28-tetrahydroxy-2,8,14,20-tetrathia[19.3.1.1^3,71^9,131^15,19]octacosa-1(25),3,5,7(28),9,11,13(27),15,17,19(26),21,23-dodecaene-5,11,17,23-tetrasulfonic acid] was tested, and the IC50 ([1]; HIV-1 DNA concentration after 3 days of infection, MOLT-4 / HIV-1-infected MOLT-4 co-culture, read from FIG. 2) was 40 µM, the “therapeutic ratio (=CC50/IC50)” value ([1]; from Example 8 and Example 9) was 18 and the CC50 [2] was 700 µM.
